This note sets out measurements from patent US5041535A, “Antileukemic and immunostimulant peptides” (Richter Gedeon Vegyeszeti Gyar Rt., priority 1986, dated 1991).

The test system of assay [1] is peritoneal exsudatum cells (PEC). Description: Effect on phagocytosis, in vivo. More on the design: species or system CFLP mice. To be noted: 24th hour after treatment, control 179.7 ± 3.6. The protocol:
Male CFLP mice having a body of weight of 22-23 g are divided into four groups of 8-12 animals each. The animals of the test groups are treated with Glp-Lys-NH2 -mandelate for 2 days. The treatment is carried out by administering a 0.1, 1 or 10 mg/kg s.c. dose, respectively, of the active ingredient once a day, in the form of a solution in a physiological sodium chloride solution. In the 24th hour after the last treatment the yeast cell incorporating capacity of the peritoneal exsudatum cells (PEC) is determined. In the Table the x±S.E.M. data relate to the number of yeast cells incorporated into the 100 PEC cells.

The subject of assay [2] is PEC cells. Description: Phagocytosis inhibited by cyclophosphamide, simultaneously administered cyclophosphamide and peptide. The format is in vivo, CFLP mice. To be noted: 2 days, CY alone 102.5 ± 4.8, control 186.3 ± 7.8. The protocol: (§1) Male CFLP mice weighing 22-23 g are divided into five groups of 8-12 animals each. The animals belonging to the test groups (all groups except the control one) are treated for two days once a day with a 80 mg/kg p.o. dose of cyclophosphamide and the animals of three of the said groups are treated simultaneously with the administration of cyclophosphamide with a 0.1, 1.0 and 10 mg/kg s.c. dose, respectively, of Glp-Lys-NH2 -mandelate dissolved in a physiological soidum chloride solution. On the 3rd day of the test the yeast cell incorporating capacity of the PEC cells is determined. The x±S.E.M. values disclosed in the Table stand for the number of yeast cells incorporated by the 100 PEC cells.

Assay [3] concerns PEC cells. The experiment in a line: Phagocytosis inhibited by cyclophosphamide, non-simultaneously administered cyclophosphamide and peptide. To be noted: CY 80 mg/kg p.o., CY alone 112.1 ± 6.4, control 221 ± 9.4. The format is in vivo, CFLP mice. As to the method: as §1, with “cells. One proceeds as described in test a) except that the peptide is administered to the animals 6 hours after treatment with cyclophosphamide. The test is evaluated as described above.” for “cells.”

Assay [4] has as its system inflammation induced by oxozolone. The experiment in a line: Dermatitis test induced with oxazolone. To be noted: 24th hour after treatment, ear weight increase. It is filed as in vivo, CFLP mice. The protocol: In this test a modified pharmacological model of D. P. Evans et al. [Br. J. Pharmac. 43, 403-488 (1971)] is used.
The abdominal skin of male CFLP mice weighing 20-22 g is painted after the removal of the hair with 0.1 ml of a 2% solution of oxazolon (4-ethoxymethyl-2-phenyl-oxazoline, manufacturer Sigma) in sunflower oil. On the right ear of the test animals 7 days after sensitization (painting) inflammatory reaction is induced with the aid of 10 μl of a 2% acetonous oxazolone solution and simultaneously the animals are treated with a 1 or 2 mg/kg, respectively, i.p. does of the test compound. The test compound is dissolved in a physiological sodium chloride solution in such a concentration that the active ingredient content corresponding to the dose should be dissolved in a volume of 0.5 ml/10 g animal body weight.
The antiinflammatory effect is determined as follows: the animals are sacrificed in the 24th hour after treatment, whereupon the right and left ears are cut off. The percentual weight increase of the right ear related to the left ear is characteristic of the rate of inflammation induced during the test, while the percentual reduction of weight increase of the treated animals related to the untreated control is proportional to the antiinflammatory effect. In Table 4 the reduction of weight increase (antiinflammatory effect) achieved by the test compounds is disclosed, as the percentage of the untreated control.

Assay [5] deals with lymphocytes inhibited by Azathioprine. The experiment in a line: E-rosetta test inhibited by Azathioprine. It is filed as cell-based. As to the method: Inhibition of the proliferation of T-lymphocytes is tested in the E-rosetta test inhibited by Azathioprine [6-(1-methyl-4-nitroimidazole-5-yl-thio)-purine; Thymus 1, 195 (1980)].
To 200 μl of a healthy lymphocyte cell-suspension 500 μl/ml of Azathioprine and 200 μl of a separate dilution of the test compound in HBBS buffer (manufacturer: Flow, Great Britain) are added (concentration range: 10^-3 to […]). The mixture is incubated at a temperature of 37° C. in air containing 5% of carbon dioxide for 60 minutes, whereupon 200 μl of a 1% sheep erythrocyte suspension are added. The mixture thus-obtained is centrifuged at 1,000 r.p.m. for 5 minutes, the supernatant is removed by decanting and in the suspension the lymphocytes forming E-rosetta are counted under a microscope from at least 400 cells.
Under the effect of the peptides the E-rosetta forming activity of the lymphocytes inhibited by Azathioprine increases to different extent. […] It appears from the data of Table 2 that the tested peptides increase the E-rosetta forming capacity of inhibited lymphocytes, i.e. the peptides of the present invention show immunostimulant effect.

Assay [6] deals with antibody production inhibited by cyclophosphamide. The experiment in a line: Effect on antibody production in mice treated with cyclophosphamide. To be noted: cyclophosphamide 100 mg/kg i.p., titer on 6th day. It is filed as in vivo, CELP mice. As to the method:
The effect on in vivo antibody production is tested on CELP mice treated with a 100 mg/kg body weight dose of cyclophosphamide {2-[bis-(2-chloroethyl)-amino]-tetrahydro-2H-1,3,2-oxaza -phosphorine-2-oxide; method: Z. Naturforsch. 35B, 1476 (1980)}. The mice are intraperitoneally immunized with a 1% sheep erythrocyte suspension previously washed three times with a 0.9% sodium chloride solution after 10 minutes of centrifuging at 2,500 r.p.m. Simultaneously with immunization carried out on the 0. day, the activity of the immune system is suppressed by means of treatment with a 100 mg/kg i.p. does of cyclophosphamide. On the 3rd day of the test the peptides are administered to the animals intraperitoneally in a dose of 5, 50 and occasionally 100 mg/kg respectively. On the 6th day of the test blood is taken retroorbitally from the mice and the anti-sheep erythrocyte titer of the serum is determined. […] The effect of the peptides is expressed as percentage of the relief of inhibition (G %).

Assay [7] concerns human K-562 erythroleukaemical cell-line. Description: Inhibition of the proliferation of tumor cells (K-562). The format is cell-based. To be noted: 72nd hour after treatment, percentage of the control. The protocol: In the test human K-562 erythroleukaemical cell-line is used (Karolinska Institute, Stockholm). Incubation is carried out in a nutrient medium designated RPMI-1640 (manufactured by Flow, Great Britain) comprising 10% of foetal calf serum, at a temperature of 37° C., in a humidified incubator containing 3% of carbon dioxide, in plastic dishes. Every point of measurement corresponds to the average of the data measured in three dishes, each. At the beginning of the test the dilution amounts to 0.5×10^5 cells/ml. Treatment is carried out 24 hours after dilution in a manner that the medium is not changed after the treatment. The cells are counted for 96 hours after dilution every 24th hour wit the aid of a Buerker chamber.
Under the effect of the peptide in the 24th hour after treatment the cell number stagnates and later it increases to a very small extent. […] The tumor-cell division inhibiting effect of the new peptides is summarized in Table 1 (72 hours after treatment). The rate of inhibition is expressed in the percentage of the control. It clearly appears from the data of the Table that the tested peptides inhibit the proliferation of human K-562 erythroleukaemic cells.

The subject of the next assay is Lewis Lung Tumor (LLT). The experiment in a line: Tumor metastasis inhibiting effect. To be noted: single 10 mg/kg i.p., 18th day. The format is in vivo, C57 B1 mice. As to the method: 20 g male C57 B1 mice divided into groups consisting of 5 animals each, are injected with a Lewis Lung Tumor (LLT) cell-suspension. The said cell-suspension is administered into the tail vein, in a dose of 10^5 cells/mouse. Twenty-four hours after the administration of the tumor-cells the animals are treated with a single 10 mg/kg i.p. dose of the test compound. On the 18th day following infection with the tumor the animals are sacrificed and the cancer noduli appearing in the lungs are counted under a stereomicroscope. Animals not treated with peptide serve as control. In Table 8 the results obtained with Glp-Lys-NH2 dipeptide amide are disclosed.

In the case of Glp-Lys-NH2 -mandelate, the “Phagocyte activity x ± S.E.M. (number of yeast cells incorporated into the 100 PEC cells)” value is 182.3 ± 3.5 in assay [1] (0.1 mg/kg s.c. once a day for 2 days), 209.3 ± 8.6 in assay [1] (1.0 mg/kg s.c. once a day for 2 days) and 244.8 ± 4.3 in assay [1] (10 mg/kg s.c. once a day for 2 days). The “Phagocyte activity x ± S.E.M. (number of yeast cells incorporated by the 100 PEC cells)” value came out at 241.7 ± 20.3 in the assay with PEC cells [2] (CY 80 mg/kg p.o. + peptide 0.1 mg/kg s.c. simultaneously); 215.2 ± 21.5 with PEC cells [2] (CY 80 mg/kg p.o. + peptide 1.0 mg/kg s.c. simultaneously); 164.4 ± 13.8 with PEC cells [2] (CY 80 mg/kg p.o. + peptide 10 mg/kg s.c. simultaneously); 226.5 ± 8.8 with PEC cells [3] (peptide 0.1 mg/kg s.c. 6 hours after CY); 252.2 ± 7.4 with PEC cells [3] (peptide 1.0 mg/kg s.c. 6 hours after CY); 257.3 ± 9.3 in the assay on PEC cells [3] (peptide 10 mg/kg s.c. 6 hours after CY).

As to Glp-Lys-NH2 [Peptide 1], the entries for the “Inhibition of inflammation induced by oxozolone, inhibition as % of control” value in assay [4] (1 mg/kg i.p.) and in assay [4] (2 mg/kg i.p.) were 62% and 61%, respectively. The “Relief of inhibition (R %) of E-rosetta forming activity” value was found to be 33.0% in assay [5] (peptide 10^-3 mole/l); 9.9% in assay [5] (peptide 10^-5 mole/l); 36.6% in assay [5] (peptide 10^-7 mole/l); 25.0% in assay [5] (peptide 10^-9 mole/l); 10.0% in assay [5] (peptide 10^-11 mole/l). Moreover, the entries for the “Restoration of primary immune answer, G %” value in assay [6] (peptide 5 mg/kg i.p. on 3rd day) and in assay [6] (peptide 50 mg/kg i.p. on 3rd day) were 123.8% and 133.3%, respectively. The “Inhibition of the proliferation of K-562 cells, inhibition (c %)” value in assay [7] (peptide 1/ug/ml) is given as 20%; in assay [7] (peptide 10/ug/ml), 42%. The “No. of metastases in the lungs” value in the assay with Lewis Lung Tumor (LLT) (treated animal No. 1, untreated control 15) was 0; with Lewis Lung Tumor (LLT) (treated animal No. 2, untreated control 20), 2; with Lewis Lung Tumor (LLT) (treated animal No. 3, untreated control 16), 1; with Lewis Lung Tumor (LLT) (treated animal No. 4, untreated control 12), 2; in the assay on Lewis Lung Tumor (LLT) (treated animal No. 5, untreated control 11) it was 5.
